Measurements from patent US20230148214A1, “INDAZOLES AND AZAINDAZOLES AS LRRK2 INHIBITORS” (ESCAPE Bio, Inc., priority 2020, published 2023).

Experiments:
[1] = target: T1, LRRK2 WT (Homo sapiens, UniProt Q5S007); assay: LRRK2 Kinase Activity Assay (LanthaScreen TR-FRET), wild type; assay type: biochemical; conditions: recombinant wild type LRRK2, 25 μM ATP, 400 nM LRRKtide, 60 min
T1 construct: purchased Life Technologies PR8604B
Procedure, shortened: (§1)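 IC50 fitted to the compound-dependent loss of TR-FRET signal. Each kinase form, wild type or G2019S, phosphorylated the fluorescein-tagged ERM-derived LRRKtide in the presence of ATP and compound dilutions over 60 min at room temperature; quench contained 10 mM EDTA and 2 nM anti-pERM antibody (final).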

[2] = target: T2, LRRK2 G2019S (Homo sapiens, UniProt Q5S007, G2019S); assay: LRRK2 Kinase Activity Assay (LanthaScreen TR-FRET), G2019S; assay type: biochemical; conditions: recombinant G2019S-LRRK2, 25 μM ATP, 400 nM LRRKtide, 60 min; class symbols
T2 construct: purchased Life Technologies PV4881
T2 sequence (Q5S007 whole entry G2019S): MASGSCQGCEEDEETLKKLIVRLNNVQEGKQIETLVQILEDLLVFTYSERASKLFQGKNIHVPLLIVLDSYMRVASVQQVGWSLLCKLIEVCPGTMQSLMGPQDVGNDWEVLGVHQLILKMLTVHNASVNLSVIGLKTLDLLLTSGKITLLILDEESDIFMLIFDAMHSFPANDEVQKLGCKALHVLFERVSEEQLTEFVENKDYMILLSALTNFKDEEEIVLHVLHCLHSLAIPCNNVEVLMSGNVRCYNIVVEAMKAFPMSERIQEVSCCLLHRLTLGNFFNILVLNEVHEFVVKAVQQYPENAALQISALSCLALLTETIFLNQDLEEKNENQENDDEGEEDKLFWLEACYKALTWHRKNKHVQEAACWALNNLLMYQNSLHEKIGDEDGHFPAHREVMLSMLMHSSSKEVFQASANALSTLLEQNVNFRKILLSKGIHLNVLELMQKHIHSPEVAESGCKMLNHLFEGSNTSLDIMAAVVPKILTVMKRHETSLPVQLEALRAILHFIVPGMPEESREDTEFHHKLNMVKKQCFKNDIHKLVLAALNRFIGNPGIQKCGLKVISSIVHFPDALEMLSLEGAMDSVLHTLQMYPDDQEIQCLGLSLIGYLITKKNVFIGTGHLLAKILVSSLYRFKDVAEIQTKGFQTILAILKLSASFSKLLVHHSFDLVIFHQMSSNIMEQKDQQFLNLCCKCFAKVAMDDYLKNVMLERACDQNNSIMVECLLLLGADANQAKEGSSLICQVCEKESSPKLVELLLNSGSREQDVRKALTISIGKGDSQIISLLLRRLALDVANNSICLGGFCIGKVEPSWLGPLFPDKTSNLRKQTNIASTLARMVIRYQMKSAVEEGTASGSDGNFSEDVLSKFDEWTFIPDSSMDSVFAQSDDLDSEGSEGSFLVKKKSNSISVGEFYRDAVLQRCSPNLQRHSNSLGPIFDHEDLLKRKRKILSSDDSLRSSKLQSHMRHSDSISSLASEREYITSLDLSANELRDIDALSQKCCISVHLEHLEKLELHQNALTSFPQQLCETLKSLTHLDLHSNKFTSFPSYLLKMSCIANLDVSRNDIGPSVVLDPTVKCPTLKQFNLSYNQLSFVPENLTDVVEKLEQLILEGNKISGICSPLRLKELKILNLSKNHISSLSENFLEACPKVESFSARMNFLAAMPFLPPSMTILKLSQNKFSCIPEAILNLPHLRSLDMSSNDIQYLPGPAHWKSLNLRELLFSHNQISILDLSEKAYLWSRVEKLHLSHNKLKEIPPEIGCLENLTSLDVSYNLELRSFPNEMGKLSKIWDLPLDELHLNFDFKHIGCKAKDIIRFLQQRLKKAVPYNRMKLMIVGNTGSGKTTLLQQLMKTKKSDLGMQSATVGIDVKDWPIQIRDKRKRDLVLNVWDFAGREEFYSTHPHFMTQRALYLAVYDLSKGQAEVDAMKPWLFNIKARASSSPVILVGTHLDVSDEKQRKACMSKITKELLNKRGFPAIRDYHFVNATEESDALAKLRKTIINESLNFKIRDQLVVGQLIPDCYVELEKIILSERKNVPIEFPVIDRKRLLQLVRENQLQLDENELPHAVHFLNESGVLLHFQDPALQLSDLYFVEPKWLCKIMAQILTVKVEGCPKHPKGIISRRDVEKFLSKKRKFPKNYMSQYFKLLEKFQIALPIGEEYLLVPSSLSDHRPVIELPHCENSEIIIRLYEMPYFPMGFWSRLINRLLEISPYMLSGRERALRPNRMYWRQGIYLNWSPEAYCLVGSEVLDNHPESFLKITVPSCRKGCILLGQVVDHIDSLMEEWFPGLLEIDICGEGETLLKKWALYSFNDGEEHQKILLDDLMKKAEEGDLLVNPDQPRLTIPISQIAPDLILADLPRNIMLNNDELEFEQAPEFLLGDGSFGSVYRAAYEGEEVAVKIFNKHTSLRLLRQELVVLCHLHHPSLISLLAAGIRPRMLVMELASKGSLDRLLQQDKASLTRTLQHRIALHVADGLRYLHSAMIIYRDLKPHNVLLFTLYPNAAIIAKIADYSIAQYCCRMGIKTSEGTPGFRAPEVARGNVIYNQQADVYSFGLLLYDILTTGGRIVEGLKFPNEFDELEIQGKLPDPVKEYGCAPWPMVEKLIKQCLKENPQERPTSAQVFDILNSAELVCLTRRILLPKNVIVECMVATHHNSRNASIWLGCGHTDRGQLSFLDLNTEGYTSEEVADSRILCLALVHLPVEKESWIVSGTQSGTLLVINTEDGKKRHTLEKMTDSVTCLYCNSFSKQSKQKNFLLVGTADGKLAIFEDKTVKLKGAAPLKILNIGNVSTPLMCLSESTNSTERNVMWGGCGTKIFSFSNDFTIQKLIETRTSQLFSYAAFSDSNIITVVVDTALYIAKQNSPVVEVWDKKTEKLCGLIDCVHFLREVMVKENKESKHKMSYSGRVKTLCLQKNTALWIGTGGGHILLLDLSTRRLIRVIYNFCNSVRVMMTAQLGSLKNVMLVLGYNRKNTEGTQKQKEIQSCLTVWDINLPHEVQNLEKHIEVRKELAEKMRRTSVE
Procedure, shortened: as §1

T1 sequence (Q5S007 whole entry): as the sequence (Q5S007 whole entry G2019S) above, with S2019G counted along it

Structure (SMILES)	IC50 ([1]; class symbols)	IC50 [2]	IC50 ([1]; numeric bound)
COc1ccc(-c2n[nH]c3ccc(N[C@H]4CCCc5cc(C#N)ccc54)cc23)cc1OC (single isomer, unassigned) [Example 71, 5-((3-(3,4-Dimethoxyphenyl)-1H-indazol-5-yl)amino)-5,6,7,8-tetrahydronaphthalene-2-carbonitrile]	< 100 nM	< 100 nM	
N#Cc1ccc2c(c1)CCC[C@@H]2Nc1ccc2[nH]nc(-c3ccc(N4CCOCC4)cc3)c2c1 (single isomer, unassigned) [Example 72, 5-((3-(4-Morpholinophenyl)-1H-indazol-5-yl)amino)-5,6,7,8-tetrahydronaphthalene-2-carbonitrile]	< 100 nM	< 100 nM	
COc1ccc(-c2n[nH]c3ccc(N[C@H]4CCCc5cc(C#N)ccc54)cc23)cc1C (single isomer, unassigned) [Example 73, 5-((3-(4-Methoxy-3-methylphenyl)-1H-indazol-5-yl)amino)-5,6,7,8-tetrahydronaphthalene-2-carbonitrile]	100 to 1000 nM	< 100 nM	
CS(=O)(=O)c1ccc(-c2n[nH]c3ccc(N[C@H]4CCCc5cc(C#N)ccc54)cc23)cc1 (single isomer, unassigned) [Example 74, 5-((3-(4-(Methylsulfonyl)phenyl)-1H-indazol-5-yl)amino)-5,6,7,8-tetrahydronaphthalene-2-carbonitrile]	< 100 nM	< 100 nM	
C/C=C/c1n[nH]c2ccc(N[C@H]3CCCc4cc(C#N)ccc43)cc12 (single isomer, unassigned) [Example 75, (E)-5-((3-(Prop-1-en-1-yl)-1H-indazol-5-yl)amino)-5,6,7,8-tetrahydronaphthalene-2-carbonitrile]	100 to 1000 nM	< 100 nM	
N#Cc1ccc2c(c1)CCC[C@@H]2Nc1ccc2[nH]nc(-c3cncc(C4CC4)c3)c2c1 (single isomer, unassigned) [Example 76, 5-((3-(5-Cyclopropylpyridin-3-yl)-1H-indazol-5-yl)amino)-5,6,7,8-tetrahydronaphthalene-2-carbonitrile]	< 100 nM	< 100 nM	
N#Cc1ccc2c(c1)CCC[C@@H]2Nc1ccc2[nH]nc(-c3ccc4c(c3)OCO4)c2c1 (single isomer, unassigned) [Example 77, 5-((3-(Benzo[d][1,3]dioxol-5-yl)-1H-indazol-5-yl)amino)-5,6,7,8-tetrahydronaphthalene-2-carbonitrile]	< 100 nM	< 100 nM	
N#Cc1ccc2c(c1)CCC[C@@H]2Nc1ccc2[nH]nc(-c3ccc4[nH]ccc4c3)c2c1 (single isomer, unassigned) [Example 78, 5-((3-(1H-Indol-5-yl)-1H-indazol-5-yl)amino)-5,6,7,8-tetrahydronaphthalene-2-carbonitrile]	100 to 1000 nM	< 100 nM	
N#Cc1ccc2c(c1)CCC[C@@H]2Nc1ccc2[nH]nc(-c3ccc[nH]3)c2c1 (single isomer, unassigned) [Example 79, 5-((3-(1H-Pyrrol-2-yl)-1H-indazol-5-yl)amino)-5,6,7,8-tetrahydronaphthalene-2-carbonitrile]	100 to 1000 nM	< 100 nM	
CC(C)(C)OC(=O)n1cccc1-c1n[nH]c2ccc(N[C@H]3CCCc4cc(C#N)ccc43)cc12 (single isomer, unassigned) [Example 80, tert-Butyl 2-(5-((6-cyano-1,2,3,4-tetrahydronaphthalen-1-yl)amino)-1H-indazol-3-yl)-1H-pyrrole-1-carboxylate]		100 to 1000 nM	> 10000 nM
N#Cc1ccc2c(c1)CCC[C@@H]2Nc1ccc2[nH]nc(-c3ccc(C(=O)N4CCOCC4)cc3)c2c1 (single isomer, unassigned) [Example 81, 5-((3-(4-(Morpholine-4-carbonyl)phenyl)-1H-indazol-5-yl)amino)-5,6,7,8-tetrahydronaphthalene-2-carbonitrile]	< 100 nM	< 100 nM	
N#Cc1ccc2c(c1)CCC[C@@H]2Nc1ccc2[nH]nc(-c3ccc4c(c3)NC(=O)C4)c2c1 (single isomer, unassigned) [Example 82, 5-((3-(2-Oxoindolin-6-yl)-1H-indazol-5-yl)amino)-5,6,7,8-tetrahydronaphthalene-2-carbonitrile]	< 100 nM	< 100 nM	
Cn1cc2cc(-c3n[nH]c4ccc(N[C@H]5CCCc6cc(C#N)ccc65)cc34)ccc2n1 (single isomer, unassigned) [Example 83, 5-((2′-Methyl-1H,2′H-[3,5′-biindazol]-5-yl)amino)-5,6,7,8-tetrahydronaphthalene-2-carbonitrile]	< 100 nM	< 100 nM	
N#Cc1ccc2c(c1)CCC[C@@H]2Nc1ccc2[nH]nc(-c3ccc4c(c3)OCCO4)c2c1 (single isomer, unassigned) [Example 84, 5-((3-(2,3-Dihydrobenzo[b][1,4]dioxin-6-yl)-1H-indazol-5-yl)amino)-5,6,7,8-tetrahydronaphthalene-2-carbonitrile]	100 to 1000 nM	< 100 nM	
CC(=O)Nc1cccc(-c2n[nH]c3ccc(N[C@H]4CCCc5cc(C#N)ccc54)cc23)c1 (single isomer, unassigned) [Example 85, N-(3-(5-((6-Cyano-1,2,3,4-tetrahydronaphthalen-1-yl)amino)-1H-indazol-3-yl)phenyl)acetamide]	< 100 nM	< 100 nM	
CN(C)C(=O)c1cccc(-c2n[nH]c3ccc(N[C@H]4CCCc5cc(C#N)ccc54)cc23)c1 (single isomer, unassigned) [Example 86, 3-(5-((6-Cyano-1,2,3,4-tetrahydronaphthalen-1-yl)amino)-1H-indazol-3-yl)-N,N-dimethylbenzamide]	< 100 nM	< 100 nM	
N#Cc1ccc2c(c1)CCC[C@@H]2Nc1ccc2[nH]nc(C3=CCC4(CC3)OCCO4)c2c1 (single isomer, unassigned) [Example 87, 5-((3-(1,4-Dioxaspiro[4.5]dec-7-en-8-yl)-1H-indazol-5-yl)amino)-5,6,7,8-tetrahydronaphthalene-2-carbonitrile]	1000 to 10000 nM	100 to 1000 nM	
N#Cc1ccc2c(c1)CCC[C@@H]2Nc1ccc2[nH]nc(C3=CCOCC3)c2c1 (single isomer, unassigned) [Example 88, 5-((3-(3,6-Dihydro-2H-pyran-4-yl)-1H-indazol-5-yl)amino)-5,6,7,8-tetrahydronaphthalene-2-carbonitrile]	100 to 1000 nM	< 100 nM	
N#Cc1cccc(-c2n[nH]c3ccc(N[C@H]4CCCc5cc(C#N)ccc54)cc23)c1 (single isomer, unassigned) [Example 89, 5-((3-(3-Cyanophenyl)-1H-indazol-5-yl)amino)-5,6,7,8-tetrahydronaphthalene-2-carbonitrile]	< 100 nM	< 100 nM	
N#Cc1ccc2c(c1)CCC[C@@H]2Nc1ccc2[nH]nc(-c3ccc(C#N)nc3)c2c1 (single isomer, unassigned) [Example 91, 5-(5-((6-Cyano-1,2,3,4-tetrahydronaphthalen-1-yl)amino)-1H-indazol-3-yl)picolinonitrile]	100 to 1000 nM	< 100 nM	
COc1ccc(-c2n[nH]c3ccc(N[C@H]4CCCc5cc(C#N)ccc54)cc23)cc1 (single isomer, unassigned) [Example 92, 5-((3-(4-Methoxyphenyl)-1H-indazol-5-yl)amino)-5,6,7,8-tetrahydronaphthalene-2-carbonitrile]	100 to 1000 nM	< 100 nM	
N#Cc1ccc2c(c1)CCC[C@@H]2Nc1ccc2[nH]nc(/C=C/c3ccccc3)c2c1 (single isomer, unassigned) [Example 93, (E)-5-((3-Styryl-1H-indazol-5-yl)amino)-5,6,7,8-tetrahydronaphthalene-2-carbonitrile]	< 100 nM	< 100 nM	
CN1CC=C(c2n[nH]c3ccc(N[C@H]4CCCc5cc(C#N)ccc54)cc23)CC1 (single isomer, unassigned) [Example 94, 5-((3-(1-Methyl-1,2,3,6-tetrahydropyridin-4-yl)-1H-indazol-5-yl)amino)-5,6,7,8-tetrahydronaphthalene-2-carbonitrile]		1000 to 10000 nM	> 10000 nM
N#Cc1ccc2c(c1)CCC[C@@H]2Nc1ccc2[nH]nc(-c3ccc(Br)cc3)c2c1 (single isomer, unassigned) [Example 95, 5-((3-(4-Bromophenyl)-1H-indazol-5-yl)amino)-5,6,7,8-tetrahydronaphthalene-2-carbonitrile]	1000 to 10000 nM	< 100 nM	
N#Cc1ccc2c(c1)CCC[C@@H]2Nc1ccc2[nH]nc(-c3cnn4c3CCC4)c2c1 (single isomer, unassigned) [Example 96, 5-((3-(5,6-Dihydro-4H-pyrrolo[1,2-b]pyrazol-3-yl)-1H-indazol-5-yl)amino)-5,6,7,8-tetrahydronaphthalene-2-carbonitrile]	< 100 nM	< 100 nM	
Cn1ccc(-c2n[nH]c3ccc(N[C@H]4CCCc5cc(C#N)ccc54)cc23)cc1=O (single isomer, unassigned) [Example 97, 5-((3-(1-Methyl-2-oxo-1,2-dihydropyridin-4-yl)-1H-indazol-5-yl)amino)-5,6,7,8-tetrahydronaphthalene-2-carbonitrile]	100 to 1000 nM	< 100 nM	
N#Cc1ccc2c(c1)CCC[C@@H]2Nc1ccc2[nH]nc(-c3cccnc3)c2c1 (single isomer, unassigned) [Example 98, 5-((3-(Pyridin-3-yl)-1H-indazol-5-yl)amino)-5,6,7,8-tetrahydronaphthalene-2-carbonitrile]	< 100 nM	< 100 nM	
C/C=C\c1n[nH]c2ccc(N[C@H]3CCCc4cc(C#N)ccc43)cc12 (single isomer, unassigned) [Example 99, (Z)-5-((3-(Prop-1-en-1-yl)-1H-indazol-5-yl)amino)-5,6,7,8-tetrahydronaphthalene-2-carbonitrile]	100 to 1000 nM	< 100 nM	
